Measurements published in patent US6589993B2, “Treating vancomycin-intermediates and multiresistant staphylococci infection with thiamphenicol or a salt thereof” (Zambon Group S.p.A., priority 2000, dated 2003).
In brackets after ≈: the same amount, converted by molar mass. Read-outs that look alike come from different tables or passages of the source. Blank lines part the entries; values can stand above or below the compound they belong to.

How the values were obtained:
[1] = tested on: S. aureus vancomycin-intermediates (VISA) Met-R strains; assay: MIC determination (NCCLS broth microdilution), VISA Met-R strains; format: cell-based, Staphylococcus aureus; conditions: for MIC: antibiotype Oxa, Cip, Clin, Ery
How it was run: (§1)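 NCCLS broth microdilution in cation-supplemented Mueller-Hinton broth, final inoculum 5×10^5 from exponential-phase bacteria; 2% NaCl added for methicillin testing. MIC taken as lowest concentration preventing visible growth after 18–24 h at 37 °C, with S. aureus ATCC 29213 as QC strain.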

[2] = tested on: S. aureus Met-R multiresistant strains; assay: MIC determination (NCCLS broth microdilution), methicillin-resistant multiresistant S. aureus strains; format: cell-based, Staphylococcus aureus; conditions: for MIC / MIC50 / MIC90: Staphylococcus aureus; for MIC: antibiotype Oxa, Ery, read-out: MIC; for MIC50: read-out: MIC 50%; for MIC90: read-out: MIC 90%
How it was run: as §1

Staphylococci = conditions: toward strains of Staphylococci; Kayser et al. 1974; cited from earlier work
[3] = Staphylococcus aureus, Strain 51 VISA, read-out: MIC
[4] = Strain 30, Cip, Clin, Gm, SXT, Dox
[5] = Strain 32, Cip, Clin, Gm, SXT, Rif
[6] = Strain 44, Cip, Clin, Gm, Rif, Dox
[7] = Strain 45, Cip, Clin, Gm, Rif, Dox, Fos
[8] = Strain 50, Cip, Clin, Gm, Rif, Dox

- MIC [1, 3]: 16 µg/mL (≈ 44.9 µM)
- MIC ([1]; Strain 52 VISA): 16 µg/mL (≈ 44.9 µM)
- MIC Range ([1]; VISA (2) Met-R): 16 µg/mL (≈ 44.9 µM)
- MIC ([2]; Strain 1, Cip, Clin, Gm): 8 µg/mL (≈ 22.5 µM)
- MIC ([2]; Strain 2, Clin, Fos): > 64 µg/mL
- MIC ([2]; Strain 3, Cip, Clin, Gm): 16 µg/mL (≈ 44.9 µM)
- MIC ([2]; Strain 4, Cip, Gm): 8 µg/mL (≈ 22.5 µM)
- MIC ([2]; Strain 5, Cip, Clin): > 64 µg/mL
- MIC ([2]; Strain 6, Clin, Gm): > 64 µg/mL
- MIC ([2]; Strain 7, Cip, Gm): 16 µg/mL (≈ 44.9 µM)
- MIC ([2]; Strain 8, Cip, Clin): > 64 µg/mL
- MIC ([2]; Strain 9, Cip, Clin, Gm): 8 µg/mL (≈ 22.5 µM)
- MIC ([2]; Strain 10, Cip, Clin, Gm): 4 µg/mL (≈ 11.2 µM)
- MIC ([2]; Strain 11, Clin, Rif): > 64 µg/mL
- MIC ([2]; Strain 12, Cip, Clin): > 64 µg/mL
- MIC ([2]; Strain 13, Cip, Clin): 16 µg/mL (≈ 44.9 µM)
- MIC ([2]; Strain 14, Clin, Cip): 16 µg/mL (≈ 44.9 µM)
- MIC ([2]; Strain 15, Cip, Clin, Gm): 16 µg/mL (≈ 44.9 µM)
- MIC ([2]; Strain 16, Cip, Clin): 8 µg/mL (≈ 22.5 µM)
- MIC ([2]; Strain 17, Cip, Clin): 16 µg/mL (≈ 44.9 µM)
- MIC ([2]; Strain 18, Cip, Clin, Gm): > 64 µg/mL
- MIC ([2]; Strain 19, Cip, Clin, Gm): 16 µg/mL (≈ 44.9 µM)
- MIC ([2]; Strain 20, Cip, Clin, Gm): > 64 µg/mL
- MIC ([2]; Strain 21, Cip, Clin, Gm): > 64 µg/mL
- MIC ([2]; Strain 22, Cip, Clin): 16 µg/mL (≈ 44.9 µM)
- MIC ([2]; Strain 23, Cip, Clin, Gm): > 64 µg/mL
- MIC ([2]; Strain 24, Cip, Clin, Gm): > 64 µg/mL
- MIC ([2]; Strain 25, Cip, Clin, Gm): 16 µg/mL (≈ 44.9 µM)
- MIC ([2]; Strain 26, Cip, Clin, Fos, Gm): 16 µg/mL (≈ 44.9 µM)
- MIC ([2]; Strain 27, Cip, Clin, Fos, Gm): 16 µg/mL (≈ 44.9 µM)
- MIC ([2]; Strain 28, Cip, Clin, Gm): > 64 µg/mL
- MIC ([2]; Strain 29, Clin, Fos): 16 µg/mL (≈ 44.9 µM)
- MIC [2, 4]: 16 µg/mL (≈ 44.9 µM)
- MIC ([2]; Strain 31, Cip, Clin, Fox, Gm): 16 µg/mL (≈ 44.9 µM)
- MIC [2, 5]: > 64 µg/mL
- MIC ([2]; Strain 33, Cip, Clin, Gm): > 64 µg/mL
- MIC ([2]; Strain 34, Cip, Clin, Gm): > 64 µg/mL
- MIC ([2]; Strain 35, Cip, Clin, Gm): 16 µg/mL (≈ 44.9 µM)
- MIC ([2]; Strain 36, Cip, Clin, Fos): 16 µg/mL (≈ 44.9 µM)
- MIC ([2]; Strain 37, Cip, Clin, Fos, Gm): 16 µg/mL (≈ 44.9 µM)
- MIC ([2]; Strain 38, Cip, Gm): 8 µg/mL (≈ 22.5 µM)
- MIC ([2]; Strain 39, Cip, Clin, Fos, Gm): 16 µg/mL (≈ 44.9 µM)
- MIC ([2]; Strain 40, Cip, Clin, Gm): 16 µg/mL (≈ 44.9 µM)
- MIC ([2]; Strain 41, Cip, Clin): 16 µg/mL (≈ 44.9 µM)
- MIC ([2]; Strain 42, Cip, Clin, Gm): 8 µg/mL (≈ 22.5 µM)
- MIC ([2]; Strain 43, Cip, Clin, Gm): 16 µg/mL (≈ 44.9 µM)
- MIC [2, 6]: 16 µg/mL (≈ 44.9 µM)
- MIC [2, 7]: 16 µg/mL (≈ 44.9 µM)
- MIC ([2]; Strain 46, Clin, Fos): 16 µg/mL (≈ 44.9 µM)
- MIC ([2]; Strain 47, Cip, Clin, Gm): 8 µg/mL (≈ 22.5 µM)
- MIC ([2]; Strain 48, Cip, Clin): > 64 µg/mL
- MIC ([2]; Strain 49, Cip, Gm): 16 µg/mL (≈ 44.9 µM)
- MIC [2, 8]: > 64 µg/mL
- MIC50 ([2]; S. aureus (50) Met-R): 16 µg/mL (≈ 44.9 µM)
- MIC90 ([2]; S. aureus (50) Met-R): > 64 µg/mL
- activity (MIC) compared with cloramphenicol ([2]; VISA and multiresistant Staphylococcus aureus strains, in vitro): comparable to that as of cloramphenicol
SMILES: CS(=O)(=O)c1ccc([C@@H](O)[C@@H](CO)NC(=O)C(Cl)Cl)cc1 [Thiamphenicol, thiamphenicol]
- % susceptible at breakpoint ([1]; VISA (2) Met-R, NCCLS (1999) breakpoints): 100%
- % susceptible at breakpoint ([2]; S. aureus (50) Met-R, NCCLS (1999) breakpoints): 66%
- in vitro activity relative to chloramphenicol (times less active) (Staphylococci): 2 to 4 times

- MIC [1, 3]: > 64 µg/mL
- MIC ([1]; Strain 52 VISA): >64 µg/mL
- MIC Range ([1]; VISA (2) Met-R): >64 µg/mL
- MIC ([2]; Strain 1, Cip, Clin, Gm): > 64 µg/mL
- MIC ([2]; Strain 2, Clin, Fos): > 64 µg/mL
- MIC ([2]; Strain 3, Cip, Clin, Gm): > 64 µg/mL
- MIC ([2]; Strain 4, Cip, Gm): > 64 µg/mL
- MIC ([2]; Strain 5, Cip, Clin): > 64 µg/mL
- MIC ([2]; Strain 6, Clin, Gm): > 64 µg/mL
- MIC ([2]; Strain 7, Cip, Gm): > 64 µg/mL
- MIC ([2]; Strain 8, Cip, Clin): > 64 µg/mL
- MIC ([2]; Strain 9, Cip, Clin, Gm): > 64 µg/mL
- MIC ([2]; Strain 10, Cip, Clin, Gm): > 64 µg/mL
- MIC ([2]; Strain 11, Clin, Rif): > 64 µg/mL
- MIC ([2]; Strain 12, Cip, Clin): > 64 µg/mL
- MIC ([2]; Strain 13, Cip, Clin): > 64 µg/mL
- MIC ([2]; Strain 14, Clin, Cip): > 64 µg/mL
- MIC ([2]; Strain 15, Cip, Clin, Gm): > 64 µg/mL
- MIC ([2]; Strain 16, Cip, Clin): > 64 µg/mL
- MIC ([2]; Strain 17, Cip, Clin): > 64 µg/mL
- MIC ([2]; Strain 18, Cip, Clin, Gm): > 64 µg/mL
- MIC ([2]; Strain 19, Cip, Clin, Gm): > 64 µg/mL
- MIC ([2]; Strain 20, Cip, Clin, Gm): > 64 µg/mL
- MIC ([2]; Strain 21, Cip, Clin, Gm): > 64 µg/mL
- MIC ([2]; Strain 22, Cip, Clin): > 64 µg/mL
- MIC ([2]; Strain 23, Cip, Clin, Gm): > 64 µg/mL
- MIC ([2]; Strain 24, Cip, Clin, Gm): > 64 µg/mL
- MIC ([2]; Strain 25, Cip, Clin, Gm): > 64 µg/mL
- MIC ([2]; Strain 26, Cip, Clin, Fos, Gm): > 64 µg/mL
- MIC ([2]; Strain 27, Cip, Clin, Fos, Gm): > 64 µg/mL
- MIC ([2]; Strain 28, Cip, Clin, Gm): > 64 µg/mL
- MIC ([2]; Strain 29, Clin, Fos): > 64 µg/mL
- MIC [2, 4]: > 64 µg/mL
- MIC ([2]; Strain 31, Cip, Clin, Fox, Gm): > 64 µg/mL
- MIC [2, 5]: > 64 µg/mL
- MIC ([2]; Strain 33, Cip, Clin, Gm): > 64 µg/mL
- MIC ([2]; Strain 34, Cip, Clin, Gm): > 64 µg/mL
- MIC ([2]; Strain 35, Cip, Clin, Gm): > 64 µg/mL
- MIC ([2]; Strain 36, Cip, Clin, Fos): > 64 µg/mL
- MIC ([2]; Strain 37, Cip, Clin, Fos, Gm): 64 µg/mL (≈ 87.2 µM)
- MIC ([2]; Strain 38, Cip, Gm): > 64 µg/mL
- MIC ([2]; Strain 39, Cip, Clin, Fos, Gm): 64 µg/mL (≈ 87.2 µM)
- MIC ([2]; Strain 40, Cip, Clin, Gm): > 64 µg/mL
- MIC ([2]; Strain 41, Cip, Clin): > 64 µg/mL
- MIC ([2]; Strain 42, Cip, Clin, Gm): > 64 µg/mL
- MIC ([2]; Strain 43, Cip, Clin, Gm): > 64 µg/mL
- MIC [2, 6]: > 64 µg/mL
- MIC [2, 7]: > 64 µg/mL
- MIC ([2]; Strain 46, Clin, Fos): > 64 µg/mL
- MIC ([2]; Strain 47, Cip, Clin, Gm): > 64 µg/mL
- MIC ([2]; Strain 48, Cip, Clin): > 64 µg/mL
- MIC ([2]; Strain 49, Cip, Gm): > 64 µg/mL
- MIC [2, 8]: > 64 µg/mL
- MIC50 ([2]; S. aureus (50) Met-R): > 64 µg/mL
- MIC90 ([2]; S. aureus (50) Met-R): > 64 µg/mL
SMILES: CC[C@H]1OC(=O)[C@H](C)[C@@H](O[C@H]2C[C@@](C)(OC)[C@@H](O)[C@H](C)O2)[C@H](C)[C@@H](O[C@@H]2O[C@H](C)C[C@H](N(C)C)[C@H]2O)[C@](C)(O)C[C@@H](C)C(=O)[C@H](C)[C@@H](O)[C@]1(C)O [Erythromycin, erythromycin]
